From US12516293B2, “Reagents and methods with Wnt agonists and bioactive lipids for generating and expanding cardiomyocytes” (The Board of Trustees of the Leland Stanford Junior …, priority 2018, dated 2026)

Legend:
Assay type in all cases: cell-based, human
[1] = test system: hiPSC-CMs; assay: ki67/pHH3 proliferation and binucleation of hiPSC-CMs (immunofluorescence); conditions: day 12 hiPSC-CMs (P0), 24 hrs treatment
Procedure: Immunohistochemistry was performed with the incubation of primary antibodies overnight followed by 2 hours of incubation with various Alexa fluorescence conjugated secondary antibodies. Images were made with confocal (Zeiss LSM 710) or regular immunofluorescence microscopy (Leica DM IL LED). Primaries used in this study were cardiac troponin T (MS-295, Fisher), Ki67 (ab15580, Abcam), pHH3 (#9701, Cell Signaling), aurora B (ab2254, Abcam), alpha sarcomeric actinin ([…], Sigma-Aldrich), MLC2V (ab48003, Abcam), phospo AKT […] (#9275, Cell Signaling). […] To examine this, the percentage was determined of troponin T (TnT) positive hiPSC-CMs that express the cell cycle marker ki67 or the mitosis marker phospho-histone H3 (pHH3) at each passage after treatment with CHIR or DMSO (CTR) (FIG. 2A-C). […] The short-term (24 hrs) changes were assessed in proliferation rate of day 12 hiPSC-CMs (P0) after treatment with CHIR-, CTR-, or C59, a specific inhibitor of Wnt signaling (FIG. 2I-J).

[2] = test system: hiPSC-CMs; assay: Real-time PCR / immunostaining of cardiac gene expression in hiPSC-CMs
Procedure: For quantitative analysis of gene expression, RNA was extracted with a lysis buffer (Qiagen) from hiPSC-CMs and stored at −80° C. Total RNA from each sample was purified from cell lysate using a RNA purification kit (Qiagen). cDNA was made using iScript cDNA synthesis kit (BioRad). Quantitative PCR was performed using a 96-well thermocycler system (Biorad) with SYBR Green substrate (Affymetrix) for 40 cycles. All primers sequences were obtained from the PrimerBank (Massachusetts General Hospital/Harvard Medical School) online database. […] Day 12 hiPSC-CMs were cultured in CHIR continuously for 2 months with serial passaging followed by CHIR withdrawal for an additional month.

[3] = test system: hiPSC-CMs; assay: Sarcomere alignment and contractility on micropatterns; conditions: C59 added to cells previously treated with CHIR (CHIR>C59)
Procedure: Cells were plated on soft substrates with micropatterned proteins on top. After 3-6 days of culture high resolution movies (Sony Microscopy) were recorded for at least 10 individual cells per group and motion velocity analysis was processed digitally. After recordings, cells were fixed and used for immunohistochemistry and confocal imaging. Sarcomere alignment was quantified with Image J software. CM maturation is accompanied by the formation of highly structured sarcomere, bi- or multinucleation, and cell cycle exit (Bassat et al., 2017; Bersell et al., 2009; Senyo et al., 2014; Uygur and Lee, 2016). […] To address this, age-matched hiPSC-CMs exposed to media containing DMSO (CTR) were compared to ones that have undergone 3 passages in media containing 2.0 μM CHIR using various phenotypic assays of CM function. To assess sarcomere alignment, CHIR and CTR hiPSC-CMs on 7:1 aspect ratio micropatterns (Ribeiro et al., 2015) were cultured and immunostained with TnT and sarcomeric actinin antibodies.

[4] = test system: hiPSC-CMs; assay: Cell cycle activity in well-differentiated hiPSC-CMs (ki67, pHH3, cell count); conditions: 5 μM VPC23019 together with S1P
Procedure: To address this, well-differentiated hiPSC-CMs were generated (e.g. day 30 or later) using chemically-defined protocols (Burridge et al. 2014; Churko et al. 2013; Sharma et al. 2015) (Movie S1) and treated them with S1P/LPA or CHIR or both (FIG. 18A). The presence of S1P/LPA receptors in these cells was first validated (FIG. 21). Immunofluorescence staining was then performed for ki67, a marker of cell cycle activity, and phospho Histone H3 (pHH3), a mitosis marker, in cardiac troponin T (TnT) positive cells.

[5] = test system: TCF/LEF; assay: TOPFlash TCF/LEF luciferase reporter in day 12 hiPSC-CMs
Procedure: Day 12 hiPSC-CMs were transfected for 48h with a TCF reporter plasmid (TOPflash M50, Addgene) or the mutant reporter plasmid (TOPflash M51, Addgene) and the use of Lipofectamine 3000 (Invitrogen). 72h after transfection cells were treated with various small molecules for 24h. Cells were lysed and mixed with luciferase substrate (Promega) and the firefly luciferase expression was measured with a 96-well micro plate reader (Fisher).

[6] = test system: hiPSC-CMs; assay: CHIR-mediated hiPSC-CM proliferation with pathway inhibitors
[7] = test system: YAP; assay: YAP nuclear accumulation in hiPSC-CMs; conditions: day 10 or day 30 hiPSC-CMs
Procedure: Given the well-known role of Hippo/Yap signaling in regulating cardiomyocyte and non-myocyte proliferation and regeneration (Yusuf et al. 2012; Heallen et al. 2011; Morikawa et al. 2017; Leach et al. 2017; von Gise et al. 2012), the ability of bioactive lipids was assessed to promote nuclear accumulation of Yap (FIG. 23). […] Consequently, no increase in nuclear YAP accumulation was observed following bioactive lipid treatment (FIG. 23B).

[8] = test system: hiPSC-CMs; assay: Wnt receptor ligands on hiPSC-CM expansion and cell-cycle reactivation; conditions: day 12 proliferative hiPSC-CMs
Source text: Reactivating Wnt signaling may promote proliferation in aged, non-proliferative CMs rather than simply maintain pre-existing proliferation (FIG. 6A). […]

Cc1cc(-c2ccc(CC(=O)Nc3ccc(-c4cccnc4)cc3)cc2)ccn1 [C59]
ki67 expression / proliferation rate [1]: did not result in a decreased rate of hiPSC-CM proliferation
expression of maturation, excitation, contractility and metabolism markers ([2]; 3 additional weeks after CHIR day 12 to 28, compared with continued CHIR): upregulation of markers associated with cardiomyocyte maturation
MYL2 immunofluorescence staining ([2]; compared with CHIR-treated cells): increase in immunofluorescence staining for MYL2
sarcomere organization after C59 [3]: reorganization of their sarcomeres to a state similar to the age-matched control hiPSC-CMs

CCCCCCCCc1cccc(NC(=O)[C@H](N)COP(=O)(O)O)c1 [VPC23019]
expression of ki67 in S1P-treated hiPSC-CMs [4]: reduced

Cc1ccc(/C=N/NC(=O)c2ccccc2Oc2ccccc2)o1 [PNU74654]
CHIR-induced activation of TCF/LEF luciferase reporter ([5]; CHIR in the presence of PNU74654, 24 hrs): abolished
decrease of CHIR-mediated hiPSC-CM proliferation ([6]; CHIR in the presence of PNU74654 vs CHIR alone): ~50%
CHIR-induced Wnt target gene expression ([2]; co-treatment with CHIR, qPCR): abolish this increase
markers of hiPSC-CM maturation (MYL2, MYH7, MYOM1) ([2]; co-treatment with CHIR, qPCR): recovered fully

NC1(c2ccc(-c3nc4ccn5c(=O)[nH]nc5c4cc3-c3ccccc3)cc2)CCC1 [MK2206]
TCF/LEF luciferase activity ([5]; CHIR and MK2206, 24 hrs): not due to the downregulation of downstream β-catenin signaling
mitotic cells expressing pAKT ([6]; CHIR and MK2206 vs CHIR alone): far fewer mitotic cells
CM replication ([6]; CHIR and MK2206 vs CHIR alone, 6 days): decreased

lysophosphatidic acid [LPA]
YAP nuclear accumulation [7]: No significant (N.S.) increase in YAP nuclear accumulation

B1: Wnt3A: purified Wnt3A protein (R&D systems), Wnt receptor ligand (protein, UniProt P56704 19-352, looked up)
Protein Wnt-3a: SYPIWWSLAVGPQYSSLGSQPILCASIPGLVPKQLRFCRNYVEIMPSVAEGIKIGIQECQHQFRGRRWNCTTVHDSLAIFGPVLDKATRESAFVHAIASAGVAFAVTRSCAEGTAAICGCSSRHQGSPGKGWKWGGCSEDIEFGGMVSREFADARENRPDARSAMNRHNNEAGRQAIASHMHLKCKCHGLSGSCEVKTCWWSQPDFRAIGDFLKDKYDSASEMVVEKHRESRGWVETLRPRYTYFKVPTERDLVYYEASPNFCEPNPETGSFGTRDRTCNVSSHGIDGCDLLCCGRGHNARAERRREKCRCVFHWCCYVSCQECTRVYDVHTCK
CM expansion (TnT positive cell number) [8]: promoted CM expansion
